Counter-ions that a name gives are not always drawn. Like-named read-outs stand apart in the source and are kept apart here.

For assay [1], the system named is human whole blood. The assay can be described thus: Ex vivo assay testing inhibitory activity in human whole blood after stimulation with calcium ionophore (LTB4 ELISA).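 Also: heparinized human blood preincubated 15 min at 37 °C with compound, then ionomycin-stimulated for 30 min, LTB4 in plasma supernatant quantified by ELISA.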 It is filed as cell-based. Conditions: Ionomycin 20 μM, read-out: hWBIC50.
Method: (2) Ex vivo assay testing inhibitory activity in human whole blood after stimulation with calcium ionophor.
Human blood was collected in heparin-containing Vacutainer tubes. […] Then 4 μl of a series of compound dilutions (in DMSO) were added, followed by a 15 min incubation at 37° C. with gentle shaking. After that, blood samples were stimulated by adding Ionomycin (Calbiochem) to a final concentration of 20 μM. After another incubation at 37° C. for 30 min, samples were centrifuged for 5 min at 1800 g and 4° C. Supernatants were taken and LTB4 concentrations were determined using a commercially available enzyme-linked immunosobentassay (R&D Systems, Minneapolis, Minn.) according to the manufacturer's instructions.
For assay [2], the target named is T1, human LTA4 hydrolase (Homo sapiens, UniProt P09960).
T1 construct: A human LTA4 hydrolase full-length cDNA clone (NM 000895) was purchased; His tag (6xHis of vector pDEST17); made in house; host or cells: Escherichia coli BL21-AI
T1 sequence (P09960 1-611): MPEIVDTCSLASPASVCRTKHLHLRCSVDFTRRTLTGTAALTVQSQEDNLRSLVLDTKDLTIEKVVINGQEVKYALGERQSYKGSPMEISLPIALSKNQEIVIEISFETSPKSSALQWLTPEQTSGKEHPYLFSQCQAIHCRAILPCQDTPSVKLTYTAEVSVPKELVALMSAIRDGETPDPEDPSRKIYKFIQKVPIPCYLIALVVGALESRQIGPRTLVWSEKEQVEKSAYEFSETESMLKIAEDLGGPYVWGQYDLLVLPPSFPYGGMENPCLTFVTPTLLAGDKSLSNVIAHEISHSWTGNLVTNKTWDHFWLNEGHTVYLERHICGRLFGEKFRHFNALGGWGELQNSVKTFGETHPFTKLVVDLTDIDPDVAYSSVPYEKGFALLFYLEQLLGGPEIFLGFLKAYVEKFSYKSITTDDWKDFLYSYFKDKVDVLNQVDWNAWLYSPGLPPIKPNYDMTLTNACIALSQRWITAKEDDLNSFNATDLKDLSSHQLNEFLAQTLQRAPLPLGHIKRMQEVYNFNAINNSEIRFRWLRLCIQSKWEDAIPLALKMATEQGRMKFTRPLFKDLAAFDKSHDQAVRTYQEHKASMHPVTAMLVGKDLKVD
The assay can be described thus: In vitro assay testing inhibitory activity against purified recombinant human LTA4 hydrolase (LTB4 formed, LC-MS/MS).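 Also: 200 nM enzyme preincubated 10 min at room temperature with serial inhibitor dilutions in pH 8.0 Tris buffer with BSA and 10% DMSO, then 2 µM LTA4 added.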 It is filed as biochemical.
From the text: (1) In vitro assay testing inhibitory activity against purified recombinant human LTA4 hydroase. […] The gene was amplified by polymerase chain reaction and transferred via pDONR201 into the bacterial expression vector pDEST17 by recombination (both plasmids from Invitrogen, Carlsbad, Calif.). The resulting construct was transformed into Escherichia coli BL21-AI (Invitrogen), and expression was induced by chemical induction with arabinose. The recombinant enzyme was purified by chromatography on an FPLC system (Amersham Biosciences, Uppsala, Sweden) using immobilized metal affinity chromatography (Ni-NTA Superflow, Qiagen, Hilden, Germany) and anion exchange chromatography (MonoQ HR 10/10, Amersham Biosciences).
The compounds of the invention were incubated in a series of dilutions with 200 nM of recombinant enzyme in assay buffer (100 mM Tris-HCl, 100 mM NaCl, 5 mg/ml fatty-acid free BSA, 10% DMSO, pH 8.0) for 10 min at room temperature to allow binding between LTA4 hydrolase and the inhibitors. LTA4 was prepared by alkaline hydrolysis of LTA4 methyl ester (Biomol, Plymouth Meeting, Pa., or Cayman Chemicals, Ann Arbor, Mich.). A solution of 10 μg of the ester was dried under a nitrogen stream and redissolved in 60 μl of a solution of 80% acetone and 20% 0.25 M NaOH. After incubation for 40 min at room temperature the resulting approximately 500 μM tock of LTA4 was kept at −80° C. for no more than a few days prior to use.
Immediately before the assay, LTA4 was diluted to a concentration of 10 μM in assay buffer (without DMSO) and added to the reaction mixture to a final concentration of 2 μM to initiate the enzyme reaction. […] The samples were then kept at 4° C. overnight to complete protein precipitation and centrifuged for 15 min at 1800 g.

Where [3] appears, read: recombinant human LTA4 hydrolase 200 nM, LTA4 2 μM, read-out: AvgIC50.

Consider `Clc1ccc(Oc2ccc(OC[C@H]3CCCN3)cc2)cc1` [Example 13, (R)-2-[4-(4-Chloro-phenoxy)-phenoxymethyl]-pyrrolidine hydrochloride], for which the IC50 in assay [1] and in assay [2] (setting [3]) was under 5 µM each time. Take `O=C(O)CCCN1CCCC[C@H]1COc1ccc(Oc2ccc(Cl)cc2)cc1` [Example 61, 4-{(S)-2-[4-(4-Chloro-phenoxy)-phenoxymethyl]-piperidin-1-yl}-butyric acid hydrochloride]: the IC50 in assay [1] and in assay [2] was under 5 µM in each case.

As for `O=C(O)CCCN1CCC[C@H]1COc1ccc(Oc2ccc(Cl)cc2)cc1` [Example 22, 4-{(S)-2-[4-(4-Chloro-phenoxy)-phenoxymethyl]-pyrrolidin-1-yl}-butyric acid hydrochloride], the IC50 in assay [1] was under 5 µM. As to `c1ccc(Oc2ccc(NC[C@H]3CCCN3)cc2)cc1` [Example 42, (4-Phenoxy-phenyl)-(R)-1-pyrrolidin-2-ylmethyl-amine], the IC50 in assay [1] and in assay [2] (setting [3]) was under 5 µM each time. On to `c1ccc(Cc2ccc(OC[C@H]3CCCN3Cc3ccccn3)cc2)cc1` [Example 4, 2-[(R)-2-(4-benzyl-phenoxymethyl)-pyrrolidin-1-ylmethyl]-pyridine], for which the IC50 in assay [1] and in assay [2] (setting [3]) was under 5 µM each time.

With `O=C(O)CCCN1CCC[C@H]1COc1ccc(Cc2ccc(-c3ccsc3)cc2)cc1` [Example 169, 4-{(S)-2-[4-(4-Thiophen-3-yl-benzyl)-phenoxymethyl]-pyrrolidin-1-yl}-butyric acid sodium salt], the IC50 in assay [1] and in assay [2] (setting [3]) was under 5 µM each time. Regarding `c1ccc(-c2ccc(Oc3ccc(OC[C@@H]4CCCCN4)cc3)cc2)cc1` [Example 53, (S)-2-[4-(Biphenyl-4-yloxy)-phenoxymethyl]-piperidine hydrochloride], the IC50 in assay [1] and in assay [2] was under 5 µM throughout. Take `c1csc(-c2ccc(Oc3ccc(OC[C@H]4CCCN4)cc3)cc2)n1` [Example 146, 2-{4-[4-((R)-1-Pyrrolidin-2-ylmethoxy)-phenoxy]-phenyl}-thiazole hydrochloride salt]: the IC50 in assay [1] and in assay [2] (setting [3]) was under 5 µM in each case.

On to `Cc1ccc(-c2ccc(Cc3ccc(OC[C@H]4CCCN4)cc3)cc2)s1` [Example 110, (R)-2-{4-[4-(5-methyl-thiophen-2-yl)-benzyl]-phenoxymethyl}-pyrrolidine hydrogen chloroide salt], for which the IC50 in assay [1] is 5 to 20 µM; in assay [2] (setting [3]) it was under 5 µM.

Consider `NC(=O)NCCCN1CCC[C@H]1COc1ccc(Oc2ccc(Cl)cc2)cc1` [Example 40, (3-{(S)-2-[4-(4-Chloro-phenoxy)-phenoxymethyl]-pyrrolidin-1-yl}-propyl)-urea], for which the IC50 in assay [1] is under 5 µM. Regarding `Ic1ccc(Cc2ccc(OC[C@H]3CCCN3)cc2)cc1` [Example 106, (R)-2-[4-(4-Iodo-benzyl)-phenoxymethyl]-pyrrolidine Hydrogen chloride salt], the IC50 in assay [1] and in assay [2] (setting [3]) was under 5 µM each time.

As to `O=C(O)CCN1CCC[C@@H]1COc1ccc(Cc2ccccc2)cc1` [Example 9, 3-[(R)-2-(4-benzyl-phenoxymethyl)-pyrrolidin-1-yl]-propionic acid hydrochloride], the IC50 in assay [1] and in assay [2] (setting [3]) was under 5 µM throughout. As to `NC(=O)CCCN1CCC[C@H]1COc1ccc(Oc2ccc(Cl)cc2)cc1` [Example 23, 4-{(S)-2-[4-(4-Chloro-phenoxy)-phenoxymethyl]-pyrrolidin-1-yl}-butyramide], the IC50 in assay [1] and in assay [2] (setting [3]) was under 5 µM each time. `FC(F)(F)c1ccc(Oc2ccc(OC[C@H]3CCCN3)cc2)cc1` [Example 16, (R)-2-[4-(4-Trifluoromethyl-phenoxy)-phenoxymethyl]-pyrrolidine hydrochloride]: the IC50 in assay [1] and in assay [2] (setting [3]) was under 5 µM in each case. For the compound `O=C(O)CCCN1CCC[C@@H]1COc1ccc(Cc2ccc(-c3cccs3)cc2)cc1` [Example 113, 4-{(R)-2-[4-(4-Thiophen-2-yl-benzyl)-phenoxymethyl]-pyrrolidin-1-yl}-butyric acid hydrogen chloride salt], the IC50 in assay [1] and in assay [2] (setting [3]) was under 5 µM in each case. As to “(S)-2-[4-(2-thiophen-benzyl)-phenoxymethyl]-pyrrolidine hydrogen chloride salt [Example 117]”, the IC50 in assay [1] is under 5 µM. `c1ccc(Cc2ccc(OCC3CCCCN3)cc2)cc1` (racemic) [Example 73, (+/−)-2-[(4-Benzylphenoxy)methyl]-piperidine hydrochloride]: the IC50 in assay [1] and in assay [2] (setting [3]) was under 5 µM each time.

In the case of `c1cncc(-c2ccc(Oc3ccc(OC[C@H]4CCCN4)cc3)cc2)c1` [Example 87, 3-{4-[4-((R)-1-Pyrrolidin-2-ylmethoxy)-phenoxy]-phenyl}-pyridine hydrochloride salt], the IC50 in assay [1] and in assay [2] (setting [3]) was under 5 µM throughout. For the compound `Fc1ccc(Oc2ccc(OC[C@H]3CCCN3)cc2)cc1` [Example 49, (R)-2-[4-(4-Fluoro-phenoxy)-phenoxymethyl]-pyrrolidine], the IC50 in assay [1] and in assay [2] (setting [3]) was under 5 µM each time.

In the case of `FC(F)(F)c1ccc(Oc2ccc(OC[C@H]3CCCCN3)cc2)cc1` [Example 55, (R)-2-[4-(4-Trifluoromethyl-phenoxy)-phenoxymethyl]-piperidine hydrochloride], the IC50 in assay [1] and in assay [2] (setting [3]) was under 5 µM in each case. On to `Clc1ccc(Cc2ccc(OC[C@@H]3CCCN3)cc2)cc1` [Example 64, (S)-2-[4-(4-Chloro-benzyl)-phenoxymethyl]-pyrrolidine hydrochloride], for which the IC50 in assay [1] and in assay [2] (setting [3]) was under 5 µM each time.

As to `O=C(CCCN1CCC[C@H]1COc1ccc(Oc2ccc(Cl)cc2)cc1)NO` [Example 27, hydrochloride], in assay [1], the IC50 is under 5 µM. On the same count and under the same terms, the value for `O=C(O)CCCN1CCC[C@@H]1COc1ccc(Oc2ccc(Cl)cc2)cc1` [Example 20, 4-{(R)-2-[4-(4-Chloro-phenoxy)-phenoxymethyl]-pyrrolidin-1-yl}-butyric acid hydrochloride] was under 5 µM.

For `O=C(O)CCCN1CCC[C@@H]1COc1ccc(Oc2ccc(-c3nccs3)cc2)cc1` [Example 147, 4-{(R)-2-[4-(4-Thiazol-2-yl-phenoxy)-phenoxymethyl]-pyrrolidin-1-yl}-butyric acid], in assay [1], the IC50 was under 5 µM. As for `OC(c1ccc(OC[C@H]2CCCN2)cc1)c1ccc(-c2ccsc2)cc1` (stereo partly drawn) [Example 129, [4-((R)-1-Pyrrolidin-2-ylmethoxy)-phenyl]-(4-thiophen-3-yl-phenyl)-methanol], the IC50 in assay [2] (setting [3]) fell in the range of 5 to 20 µM. Consider `Clc1ccc2nc(Oc3ccc(OC[C@H]4CCCN4)cc3)sc2c1` [Example 101, (R)-2-[4-(6-Chloro-benzothiazol-2-yloxy)-phenoxymethyl]-pyrrolidine-Hydrogen chloride salt], for which the IC50 in assay [2] (setting [3]) was under 5 µM. For the compound `c1ncc(-c2ccc(Oc3ccc(OC[C@@H]4CCCN4)cc3)cc2)o1` [Example 89, 5-{4-[4-((S)-1-Pyrrolidin-2-ylmethoxy)-phenoxy]-phenyl}-oxazole], the IC50 in assay [2] (setting [3]) was under 5 µM. For the compound `COc1ccc2nc(Oc3ccc(OC[C@H]4CCCN4)cc3)sc2c1` [Example 102, (R)-2-[4-(6-Methoxy-benzothiazol-2-yloxy)-phenoxymethyl]-pyrrolidine-Hydrogen chloride salt], the IC50 in assay [2] (setting [3]) is under 5 µM. Turning to `Clc1cc2c(cc1COc1ccc(OC[C@H]3CCCN3)cc1)OCO2` [Example 98, (R)-2-[4-(6-Chloro-benzo[1,3]dioxol-5-ylmethoxy)phenoxymethyl]pyrrolidine Hydrogen chloride salt], the IC50 in assay [2] (setting [3]) lay in the range of 20 to 100 µM. The same measure, in the same setting: the value for `O=C(O)CN1CCC[C@H]1COc1ccc(Cc2ccccc2)cc1` [Example 36, [(S)-2-(4-Benzyl-phenoxymethyl)-pyrrolidin-1-yl]-acetic acid TFA salt] was under 5 µM; that for `c1ccc(Cc2ccc(OC[C@@H]3CCCN3)nc2)cc1` [Example 142, 5-Benzyl-2-((S)-1-pyrrolidin-2-ylmethoxy)-pyridine hydrochloride salt] was under 5 µM. `c1ccc(Cc2ccc(OC[C@H]3CCCN3)nc2)cc1` [Example 141, 5-Benzyl-2-((R)-1-pyrrolidin-2-ylmethoxy)-pyridinehydrochloride salt]: in assay [2] (setting [3]), the IC50 is under 5 µM.

As to `O=C(O)CCN1CCC[C@@H]1COc1ccc(Oc2ccc(C(F)(F)F)cc2)cc1` [Example 29, (R)-2-[4-(4-trifluoromethyl-phenoxy)-phenoxymethyl]-pyrrolidine-1-yl}propionic acid sodium salt], the IC50 in assay [2] (setting [3]) is under 5 µM. For `O=C(Cc1ccccc1)c1ccc(OC[C@H]2CCCN2)cc1` [Example 47, 2-Phenyl-1-[4-((R)-1-pyrrolidin-2-ylmethoxy)-phenyl]-ethanone], the IC50 in assay [2] (setting [3]) lay in the range of 5 to 20 µM. With `O=C(O)CCN1CCC[C@@H]1COc1ccc(Oc2ccncc2)cc1` [Example 145, 3-{(R)-2-[4-(Pyridin-4-yloxy)-phenoxymethyl]-pyrrolidin-1-yl}-propionic acid], in assay [2] (setting [3]), the IC50 is under 5 µM.

Source of the values: patent US20070078263A1, “BIARYL SUBSTITUTED HETEROCYCLE INHIBITORS OF LTA4H FOR TREATING INFLAMMATION” (deCODE Chemistry, Inc., priority 2005, published 2007).
